# Measurements reported in the NIST ThermoML archive (doi:10.1016/j.fluid.2017.11.013).
# Where “and” joins values, the source holds several entries; their conditions need not be identical. Equal values may be shown once. Numbers after ± are expanded uncertainties.
# Conditions: Coaxial cylinder method
structure (smiles),measurement,setting,value
C=C [ethene],thermal conductivity,"283.47 K, 101 kPa, Gas",0.01865 ± 0.00069 W/m/K
same,thermal conductivity,"283.47 K, 4620 kPa, Fluid (supercritical or subcritical phases)",0.03417 ± 0.0016 W/m/K
same,thermal conductivity,"283.47 K, 4770 kPa, Fluid (supercritical or subcritical phases)",0.03732 ± 0.0017 W/m/K
same,thermal conductivity,"283.47 K, 4910 kPa, Fluid (supercritical or subcritical phases)",0.04251 ± 0.0034 W/m/K
same,thermal conductivity,"283.47 K, 4960 kPa, Fluid (supercritical or subcritical phases)",0.04566 ± 0.0026 W/m/K
same,thermal conductivity,"283.47 K, 5050 kPa, Fluid (supercritical or subcritical phases)",0.05593 ± 0.0025 W/m/K
same,thermal conductivity,"283.47 K, 5090 kPa, Fluid (supercritical or subcritical phases)",0.06391 ± 0.0027 W/m/K
same,thermal conductivity,"283.47 K, 5120 kPa, Fluid (supercritical or subcritical phases)",0.07425 ± 0.0028 W/m/K
same,thermal conductivity,"283.47 K, 5140 kPa, Fluid (supercritical or subcritical phases)",0.09013 ± 0.0034 W/m/K
same,thermal conductivity,"283.47 K, 5150 kPa, Fluid (supercritical or subcritical phases)",0.1049 ± 0.0039 W/m/K and 0.1032 ± 0.0038 W/m/K
same,thermal conductivity,"283.47 K, 5160 kPa, Fluid (supercritical or subcritical phases)",0.1241 ± 0.0048 W/m/K
same,thermal conductivity,"283.47 K, 5170 kPa, Fluid (supercritical or subcritical phases)",0.1339 ± 0.0054 W/m/K
same,thermal conductivity,"283.47 K, 5180 kPa, Fluid (supercritical or subcritical phases)",0.1143 ± 0.005 W/m/K
same,thermal conductivity,"283.47 K, 5190 kPa, Fluid (supercritical or subcritical phases)",0.09843 ± 0.0054 W/m/K
same,thermal conductivity,"283.47 K, 5200 kPa, Fluid (supercritical or subcritical phases)",0.09006 ± 0.0078 W/m/K and 0.0888 ± 0.0078 W/m/K
same,thermal conductivity,"283.47 K, 5210 kPa, Fluid (supercritical or subcritical phases)",0.08522 ± 0.0098 W/m/K
same,thermal conductivity,"283.47 K, 5220 kPa, Fluid (supercritical or subcritical phases)",0.08191 ± 0.011 W/m/K
same,thermal conductivity,"283.47 K, 5230 kPa, Fluid (supercritical or subcritical phases)",0.07984 ± 0.01 W/m/K
same,thermal conductivity,"283.47 K, 5240 kPa, Fluid (supercritical or subcritical phases)",0.07787 ± 0.0082 W/m/K
same,thermal conductivity,"283.47 K, 5250 kPa, Fluid (supercritical or subcritical phases)",0.076 ± 0.0029 W/m/K
same,thermal conductivity,"283.47 K, 5290 kPa, Fluid (supercritical or subcritical phases)",0.07419 ± 0.0041 W/m/K
same,thermal conductivity,"283.47 K, 5300 kPa, Fluid (supercritical or subcritical phases)",0.07248 ± 0.0039 W/m/K
same,thermal conductivity,"283.47 K, 5370 kPa, Fluid (supercritical or subcritical phases)",0.07203 ± 0.0033 W/m/K
same,thermal conductivity,"283.47 K, 5390 kPa, Fluid (supercritical or subcritical phases)",0.07122 ± 0.0029 W/m/K
same,thermal conductivity,"283.47 K, 5440 kPa, Fluid (supercritical or subcritical phases)",0.06948 ± 0.0027 W/m/K
same,thermal conductivity,"283.47 K, 5480 kPa, Fluid (supercritical or subcritical phases)",0.06848 ± 0.0048 W/m/K
same,thermal conductivity,"283.47 K, 5540 kPa, Fluid (supercritical or subcritical phases)",0.06774 ± 0.0027 W/m/K
same,thermal conductivity,"283.47 K, 5730 kPa, Fluid (supercritical or subcritical phases)",0.06774 ± 0.0026 W/m/K
same,thermal conductivity,"283.47 K, 5820 kPa, Fluid (supercritical or subcritical phases)",0.06848 ± 0.0027 W/m/K
same,thermal conductivity,"283.47 K, 5930 kPa, Fluid (supercritical or subcritical phases)",0.06847 ± 0.0027 W/m/K
same,thermal conductivity,"283.47 K, 6220 kPa, Fluid (supercritical or subcritical phases)",0.07041 ± 0.0027 W/m/K
same,thermal conductivity,"283.47 K, 6490 kPa, Fluid (supercritical or subcritical phases)",0.07152 ± 0.0027 W/m/K
same,thermal conductivity,"283.47 K, 6720 kPa, Fluid (supercritical or subcritical phases)",0.07259 ± 0.0028 W/m/K
same,thermal conductivity,"283.47 K, 6980 kPa, Fluid (supercritical or subcritical phases)",0.07316 ± 0.0028 W/m/K
same,thermal conductivity,"283.47 K, 7060 kPa, Fluid (supercritical or subcritical phases)",0.07329 ± 0.0028 W/m/K
same,thermal conductivity,"283.47 K, 7200 kPa, Fluid (supercritical or subcritical phases)",0.07345 ± 0.0028 W/m/K
same,thermal conductivity,"283.47 K, 7610 kPa, Fluid (supercritical or subcritical phases)",0.07519 ± 0.0029 W/m/K
same,thermal conductivity,"283.47 K, 8250 kPa, Fluid (supercritical or subcritical phases)",0.07664 ± 0.0029 W/m/K
same,thermal conductivity,"283.47 K, 8910 kPa, Fluid (supercritical or subcritical phases)",0.07874 ± 0.003 W/m/K
same,thermal conductivity,"283.96 K, 101 kPa, Gas",0.01869 ± 0.00069 W/m/K
same,thermal conductivity,"283.96 K, 3380 kPa, Fluid (supercritical or subcritical phases)",0.02528 ± 0.0013 W/m/K
same,thermal conductivity,"283.96 K, 3960 kPa, Fluid (supercritical or subcritical phases)",0.02767 ± 0.0014 W/m/K
same,thermal conductivity,"283.96 K, 4620 kPa, Fluid (supercritical or subcritical phases)",0.03396 ± 0.0016 W/m/K
same,thermal conductivity,"283.96 K, 4970 kPa, Fluid (supercritical or subcritical phases)",0.04334 ± 0.002 W/m/K
same,thermal conductivity,"283.96 K, 5050 kPa, Fluid (supercritical or subcritical phases)",0.04855 ± 0.0022 W/m/K
same,thermal conductivity,"283.96 K, 5090 kPa, Fluid (supercritical or subcritical phases)",0.05262 ± 0.0025 W/m/K
same,thermal conductivity,"283.96 K, 5110 kPa, Fluid (supercritical or subcritical phases)",0.05631 ± 0.0029 W/m/K
same,thermal conductivity,"283.96 K, 5120 kPa, Fluid (supercritical or subcritical phases)",0.05987 ± 0.003 W/m/K
same,thermal conductivity,"283.96 K, 5150 kPa, Fluid (supercritical or subcritical phases)",0.06832 ± 0.004 W/m/K
same,thermal conductivity,"283.96 K, 5190 kPa, Fluid (supercritical or subcritical phases)",0.08914 ± 0.0041 W/m/K
same,thermal conductivity,"283.96 K, 5200 kPa, Fluid (supercritical or subcritical phases)",0.1005 ± 0.0042 W/m/K
same,thermal conductivity,"283.96 K, 5210 kPa, Fluid (supercritical or subcritical phases)",0.11 ± 0.0044 W/m/K
same,thermal conductivity,"283.96 K, 5220 kPa, Fluid (supercritical or subcritical phases)",0.1162 ± 0.0045 W/m/K
same,thermal conductivity,"283.96 K, 5230 kPa, Fluid (supercritical or subcritical phases)",0.1119 ± 0.0042 W/m/K
same,thermal conductivity,"283.96 K, 5240 kPa, Fluid (supercritical or subcritical phases)",0.1008 ± 0.0038 W/m/K
same,thermal conductivity,"283.96 K, 5260 kPa, Fluid (supercritical or subcritical phases)",0.08675 ± 0.0033 W/m/K
same,thermal conductivity,"283.96 K, 5270 kPa, Fluid (supercritical or subcritical phases)",0.08189 ± 0.0031 W/m/K
same,thermal conductivity,"283.96 K, 5290 kPa, Fluid (supercritical or subcritical phases)",0.0783 ± 0.0031 W/m/K
same,thermal conductivity,"283.96 K, 5300 kPa, Fluid (supercritical or subcritical phases)",0.07641 ± 0.0031 W/m/K
same,thermal conductivity,"283.96 K, 5340 kPa, Fluid (supercritical or subcritical phases)",0.07293 ± 0.0037 W/m/K
same,thermal conductivity,"283.96 K, 5400 kPa, Fluid (supercritical or subcritical phases)",0.07163 ± 0.0028 W/m/K
same,thermal conductivity,"283.96 K, 5500 kPa, Fluid (supercritical or subcritical phases)",0.06977 ± 0.0027 W/m/K
same,thermal conductivity,"283.96 K, 5590 kPa, Fluid (supercritical or subcritical phases)",0.06886 ± 0.0027 W/m/K
